Key:
Assay type in all cases: in vivo
[1] = test system: barnyardgrass (Echinochloa crus-galli); assay: Test G Post-Emergence Protocol; conditions: Echinochloa crus-galli, post-emergence, 312 h, read-out: Barnyardgrass damage rating; for pest or weed control at 15.625 g/ha: 15.625 g ai/ha, evaluated after 13 days (100=total damage to plant; 0=no damage to plant); for pest or weed control at 62.5 g/ha: 62.5 g ai/ha; for pest or weed control at 62.5 g/ha / pest or weed control at 250 g/ha: evaluated after 13 days, 100=total damage to plant, 0=no damage to plant; for pest or weed control at 250 g/ha: 250 g ai/ha
Outline: (§1)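 Scores run 0 (no damage) to 100 (total damage) and were taken 13 days after spraying. Plants had been raised in pots for 8 days under glasshouse control (24/16 °C, 14 h photoperiod, 65% humidity) and then treated at 15.625, 62.5 or 250 g/ha.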

[2] = test system: giant foxtail (Setaria faberi); assay: Test G Post-Emergence Protocol; conditions: Setaria faberi, post-emergence, 312 h, read-out: Foxtail, Giant damage rating; for pest or weed control at 15.625 g/ha: 15.625 g ai/ha, evaluated after 13 days (100=total damage to plant; 0=no damage to plant); for pest or weed control at 62.5 g/ha: 62.5 g ai/ha; for pest or weed control at 62.5 g/ha / pest or weed control at 250 g/ha: evaluated after 13 days, 100=total damage to plant, 0=no damage to plant; for pest or weed control at 250 g/ha: 250 g ai/ha
Outline: as §1

[3] = test system: ivy-leaved morning glory (Ipomoea hederacea); assay: Test G Post-Emergence Protocol; conditions: Ipomoea, post-emergence, 312 h, read-out: Morningglory, Ivy-leaved damage rating; for pest or weed control at 15.625 g/ha: 15.625 g ai/ha, evaluated after 13 days (100=total damage to plant; 0=no damage to plant); for pest or weed control at 62.5 g/ha: 62.5 g ai/ha; for pest or weed control at 62.5 g/ha / pest or weed control at 250 g/ha: evaluated after 13 days, 100=total damage to plant, 0=no damage to plant; for pest or weed control at 250 g/ha: 250 g ai/ha
Outline: as §1

[4] = test system: velvetleaf (Abutilon theophrasti); assay: Test G Post-Emergence Protocol; conditions: Abutilon theophrasti, post-emergence, 312 h, read-out: Velvetleaf damage rating; for pest or weed control at 15.625 g/ha: 15.625 g ai/ha, evaluated after 13 days (100=total damage to plant; 0=no damage to plant); for pest or weed control at 62.5 g/ha: 62.5 g ai/ha; for pest or weed control at 62.5 g/ha / pest or weed control at 250 g/ha: evaluated after 13 days, 100=total damage to plant, 0=no damage to plant; for pest or weed control at 250 g/ha: 250 g ai/ha
Outline: as §1

[5] = test system: redroot pigweed (Amaranthus retroflexus); assay: Test G Post-Emergence Protocol; conditions: Amaranthus retroflexus, post-emergence, 312 h, read-out: Pigweed, Redroot damage rating; for pest or weed control at 15.625 g/ha: 15.625 g ai/ha, evaluated after 13 days (100=total damage to plant; 0=no damage to plant); for pest or weed control at 62.5 g/ha: 62.5 g ai/ha; for pest or weed control at 62.5 g/ha / pest or weed control at 250 g/ha: evaluated after 13 days, 100=total damage to plant, 0=no damage to plant; for pest or weed control at 250 g/ha: 250 g ai/ha
Outline: as §1

corn (Zea mays) [6] = assay: Test G Post-Emergence Protocol; conditions: Zea mays, post-emergence, 312 h, read-out: Corn damage rating; for plant injury at 15.625 g/ha: 15.625 g ai/ha, evaluated after 13 days (100=total damage to plant; 0=no damage to plant); for plant injury at 62.5 g/ha: 62.5 g ai/ha; for plant injury at 62.5 g/ha / plant injury at 250 g/ha: evaluated after 13 days, 100=total damage to plant, 0=no damage to plant; for plant injury at 250 g/ha: 250 g ai/ha
Outline: as §1

[7] = test system: barnyardgrass (Echinochloa crus-galli); assay: Test G Pre-Emergence Protocol; conditions: Echinochloa crus-galli, pre-emergence, 312 h, evaluated after 13 days; for pest or weed control at 15.625 g/ha: 15.625 g ai/ha; for pest or weed control at 15.625 g/ha / pest or weed control at 250 g/ha: read-out: Barnyardgrass damage rating (100=total damage to plant; 0=no damage to plant); for pest or weed control at 62.5 g/ha: 62.5 g ai/ha, 100=total damage to plant, 0=no damage to plant, read-out: Barnyardgrass damage rating; for pest or weed control at 250 g/ha: 250 g ai/ha
Outline: (§2)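 Spraying took place one day after sowing, at 15.625, 62.5 or 250 g/ha, using an acetone/water (50:50) spray solution containing 0.5% Tween 20. Plants were kept under glasshouse conditions (24/16 °C, 14 h light, 65% humidity, watered twice daily), and injury was rated 0–100 at day 13.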

[8] = test system: giant foxtail (Setaria faberi); assay: Test G Pre-Emergence Protocol; conditions: Setaria faberi, pre-emergence, 312 h, evaluated after 13 days; for pest or weed control at 15.625 g/ha: 15.625 g ai/ha; for pest or weed control at 15.625 g/ha / pest or weed control at 250 g/ha: read-out: Foxtail, Giant damage rating (100=total damage to plant; 0=no damage to plant); for pest or weed control at 62.5 g/ha: 62.5 g ai/ha, 100=total damage to plant, 0=no damage to plant, read-out: Foxtail, Giant damage rating; for pest or weed control at 250 g/ha: 250 g ai/ha
Outline: as §2

[9] = test system: ivy-leaved morning glory (Ipomoea hederacea); assay: Test G Pre-Emergence Protocol; conditions: Ipomoea, pre-emergence, 312 h, evaluated after 13 days; for pest or weed control at 15.625 g/ha: 15.625 g ai/ha; for pest or weed control at 15.625 g/ha / pest or weed control at 250 g/ha: read-out: Morningglory, Ivy-leaved damage rating (100=total damage to plant; 0=no damage to plant); for pest or weed control at 62.5 g/ha: 62.5 g ai/ha, 100=total damage to plant, 0=no damage to plant, read-out: Morningglory, Ivy-leaved damage rating; for pest or weed control at 250 g/ha: 250 g ai/ha
Outline: as §2

[10] = test system: velvetleaf (Abutilon theophrasti); assay: Test G Pre-Emergence Protocol; conditions: Abutilon theophrasti, pre-emergence, 312 h, evaluated after 13 days; for pest or weed control at 15.625 g/ha: 15.625 g ai/ha; for pest or weed control at 15.625 g/ha / pest or weed control at 250 g/ha: read-out: Velvetleaf damage rating (100=total damage to plant; 0=no damage to plant); for pest or weed control at 62.5 g/ha: 62.5 g ai/ha, 100=total damage to plant, 0=no damage to plant, read-out: Velvetleaf damage rating; for pest or weed control at 250 g/ha: 250 g ai/ha
Outline: as §2

[11] = test system: redroot pigweed (Amaranthus retroflexus); assay: Test G Pre-Emergence Protocol; conditions: Amaranthus retroflexus, pre-emergence, 312 h, evaluated after 13 days; for pest or weed control at 15.625 g/ha: 15.625 g ai/ha; for pest or weed control at 15.625 g/ha / pest or weed control at 250 g/ha: read-out: Pigweed, Redroot damage rating (100=total damage to plant; 0=no damage to plant); for pest or weed control at 62.5 g/ha: 62.5 g ai/ha, 100=total damage to plant, 0=no damage to plant, read-out: Pigweed, Redroot damage rating; for pest or weed control at 250 g/ha: 250 g ai/ha
Outline: as §2

corn (Zea mays) [12] = assay: Test G Pre-Emergence Protocol; conditions: Zea mays, pre-emergence, 312 h, evaluated after 13 days; for plant injury at 15.625 g/ha: 15.625 g ai/ha; for plant injury at 15.625 g/ha / plant injury at 250 g/ha: read-out: Corn damage rating (100=total damage to plant; 0=no damage to plant); for plant injury at 62.5 g/ha: 62.5 g ai/ha, 100=total damage to plant, 0=no damage to plant, read-out: Corn damage rating; for plant injury at 250 g/ha: 250 g ai/ha
Outline: as §2

| Compound | pest or weed control at 15.625 g/ha [1] | pest or weed control at 62.5 g/ha [1] | pest or weed control at 250 g/ha [1] | pest or weed control at 15.625 g/ha [2] | pest or weed control at 62.5 g/ha [2] | pest or weed control at 250 g/ha [2] | pest or weed control at 15.625 g/ha [3] | pest or weed control at 62.5 g/ha [3] | pest or weed control at 250 g/ha [3] | pest or weed control at 15.625 g/ha [4] | pest or weed control at 62.5 g/ha [4] | pest or weed control at 250 g/ha [4] | pest or weed control at 15.625 g/ha [5] | pest or weed control at 62.5 g/ha [5] | pest or weed control at 250 g/ha [5] | plant injury at 15.625 g/ha (corn (Zea mays) [6]) | plant injury at 62.5 g/ha (corn (Zea mays) [6]) | plant injury at 250 g/ha (corn (Zea mays) [6]) | pest or weed control at 15.625 g/ha [7] | pest or weed control at 62.5 g/ha [7] | other results |
| --- | --- | --- | --- | --- | --- | --- | --- | --- | --- | --- | --- | --- | --- | --- | --- | --- | --- | --- | --- | --- | --- |
| C=Cc1cc(Oc2ccccc2)cc([C@@H]2CN(C)C(=O)[C@H]2C(=O)Nc2cccc(F)c2F)c1 (racemic) [Compound 1826] | 0% | 10% | 70% | 0% | 40% | 80% | 0% | 20% | 10% | 0% | 0% | 10% | 0% | 0% | 50% | 0% | 20% | 50% | 0% | 70% | pest or weed control at 250 g/ha [7]: 80%; pest or weed control at 15.625 g/ha [8]: 20%; pest or weed control at 62.5 g/ha [8]: 80%; pest or weed control at 250 g/ha [8]: 90%; pest or weed control at 15.625 g/ha [9]: 0%; pest or weed control at 62.5 g/ha [9]: 0%; pest or weed control at 250 g/ha [9]: 0%; pest or weed control at 15.625 g/ha [10]: 0%; pest or weed control at 62.5 g/ha [10]: 0%; pest or weed control at 250 g/ha [10]: 0%; pest or weed control at 15.625 g/ha [11]: 0%; pest or weed control at 62.5 g/ha [11]: 0%; pest or weed control at 250 g/ha [11]: 20%; plant injury at 15.625 g/ha (corn (Zea mays) [12]): 10%; plant injury at 62.5 g/ha (corn (Zea mays) [12]): 10%; plant injury at 250 g/ha (corn (Zea mays) [12]): 20% |
| CN1C[C@H](c2ccc(C(F)(F)F)cc2)[C@@H](C(=O)Nc2cccnc2[N+](=O)[O-])C1=O (racemic) [Compound 1824] | 0% | 0% | 10% | 0% | 0% | 10% | 0% | 0% | 10% | 0% | 0% | 70% | 0% | 0% | 20% | 0% | 0% | 20% | 0% | 0% | pest or weed control at 250 g/ha [7]: 70%; pest or weed control at 15.625 g/ha [8]: 0%; pest or weed control at 62.5 g/ha [8]: 10%; pest or weed control at 250 g/ha [8]: 80%; pest or weed control at 15.625 g/ha [9]: 0%; pest or weed control at 62.5 g/ha [9]: 0%; pest or weed control at 250 g/ha [9]: 0%; pest or weed control at 15.625 g/ha [10]: 0%; pest or weed control at 62.5 g/ha [10]: 0%; pest or weed control at 250 g/ha [10]: 0%; pest or weed control at 15.625 g/ha [11]: 0%; pest or weed control at 62.5 g/ha [11]: 0%; pest or weed control at 250 g/ha [11]: 20%; plant injury at 15.625 g/ha (corn (Zea mays) [12]): 0%; plant injury at 62.5 g/ha (corn (Zea mays) [12]): 0%; plant injury at 250 g/ha (corn (Zea mays) [12]): 0% |

Source: patent US12077503B2, “Substituted cyclic amides and their use as herbicides” (FMC CORPORATION, priority 2015, dated 2024)
